Source: PubChem BioAssay (NCI)
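Where inhibition never reached the appropriate level, the endpoint shown equals the highest concentration tested. Otherwise, values were interpolated linearly from a five-concentration, 48-hour dose response in 96-well plates. GI50 is the concentration that inhibits growth by half. TGI is the concentration that stops growth completely.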

Key:
Experiment in all cases: NCI anticancer screen, dose series, 48 h
786-0 renal = tested on: 786-0 renal
A498 renal = tested on: A498 renal
A549 NSCLC = tested on: A549 NSCLC
ACHN renal = tested on: ACHN renal
BT-549 breast = tested on: BT-549 breast
CAKI-1 renal = tested on: CAKI-1 renal
CCRF-CEM leukemia = tested on: CCRF-CEM leukemia
COLO 205 colon = tested on: COLO 205 colon
DU-145 prostate = tested on: DU-145 prostate
EKVX NSCLC = tested on: EKVX NSCLC
HCC-2998 colon = tested on: HCC-2998 colon
HCT-116 colon = tested on: HCT-116 colon
HCT-15 colon = tested on: HCT-15 colon
HL-60(TB) leukemia = tested on: HL-60(TB) leukemia
HOP-62 NSCLC = tested on: HOP-62 NSCLC
HOP-92 NSCLC = tested on: HOP-92 NSCLC
HS 578T breast = tested on: HS 578T breast
HT29 colon = tested on: HT29 colon
IGROV1 ovarian = tested on: IGROV1 ovarian
K-562 leukemia = tested on: K-562 leukemia
KM12 colon = tested on: KM12 colon
LOX IMVI melanoma = tested on: LOX IMVI melanoma
M14 melanoma = tested on: M14 melanoma
MALME-3M melanoma = tested on: MALME-3M melanoma
MCF7 breast = tested on: MCF7 breast
MDA-MB-231 breast = tested on: MDA-MB-231 breast
MDA-MB-435 = tested on: MDA-MB-435
MDA-MB-468 breast = tested on: MDA-MB-468 breast
MOLT-4 leukemia = tested on: MOLT-4 leukemia
NCI-H226 lung = tested on: NCI-H226 lung
NCI-H23 lung = tested on: NCI-H23 lung
NCI-H460 lung = tested on: NCI-H460 lung
NCI-H522 lung = tested on: NCI-H522 lung
NCI/ADR-RES ovarian = tested on: NCI/ADR-RES ovarian
OVCAR-3 ovarian = tested on: OVCAR-3 ovarian
OVCAR-4 ovarian = tested on: OVCAR-4 ovarian
OVCAR-5 ovarian = tested on: OVCAR-5 ovarian
OVCAR-8 ovarian = tested on: OVCAR-8 ovarian
PC-3 prostate = tested on: PC-3 prostate
RPMI-8226 leukemia = tested on: RPMI-8226 leukemia
RXF 393 renal = tested on: RXF 393 renal
SF-268 CNS = tested on: SF-268 CNS
SF-295 CNS = tested on: SF-295 CNS
SF-539 CNS = tested on: SF-539 CNS
SK-MEL-2 melanoma = tested on: SK-MEL-2 melanoma
SK-MEL-28 melanoma = tested on: SK-MEL-28 melanoma
SK-MEL-5 melanoma = tested on: SK-MEL-5 melanoma
SK-OV-3 ovarian = tested on: SK-OV-3 ovarian
SN12C renal = tested on: SN12C renal
SNB-19 CNS = tested on: SNB-19 CNS
SNB-75 CNS = tested on: SNB-75 CNS
SR leukemia = tested on: SR leukemia
SW-620 colon = tested on: SW-620 colon
T-47D breast = tested on: T-47D breast
TK-10 renal = tested on: TK-10 renal
U251 CNS = tested on: U251 CNS
UACC-257 melanoma = tested on: UACC-257 melanoma
UACC-62 melanoma = tested on: UACC-62 melanoma
UO-31 renal = tested on: UO-31 renal

With `COc1cccc(-c2ccc(/C=N/NC(=O)c3[nH]c4ccc(Br)cc4c3-c3ccccc3)s2)c1` the GI50 (786-0 renal) was 3.7 µM, the TGI (786-0 renal) was > 100 µM and the GI50 (A498 renal) was 82.3 µM. For the same compound, the TGI (A498 renal) was > 100 µM, the GI50 (A549 NSCLC) was 4.71 µM and the TGI (A549 NSCLC) was > 100 µM. The GI50 (ACHN renal) was 3.96 µM, the TGI (ACHN renal) was > 100 µM and the GI50 (BT-549 breast) was 3.96 µM. The TGI (BT-549 breast) was 9.44 µM, the GI50 (CAKI-1 renal) was 3.19 µM and the TGI (CAKI-1 renal) was 63.5 µM. For the same compound, the GI50 (CCRF-CEM leukemia) was 3.15 µM, the TGI (CCRF-CEM leukemia) was 13.3 µM and the GI50 (COLO 205 colon) was 3.28 µM. The TGI (COLO 205 colon) was 12.9 µM, the GI50 (DU-145 prostate) was 3.62 µM and the TGI (DU-145 prostate) was > 100 µM. For the same compound, the GI50 (EKVX NSCLC) was 7.39 µM, the TGI (EKVX NSCLC) was > 100 µM and the GI50 (HCC-2998 colon) was 4.21 µM. For the same compound, the TGI (HCC-2998 colon) was > 100 µM, the GI50 (HCT-116 colon) was 2.97 µM and the TGI (HCT-116 colon) was 10.5 µM. The GI50 (HCT-15 colon) was 3.36 µM, the TGI (HCT-15 colon) was > 100 µM and the GI50 (HL-60(TB) leukemia) was 2.16 µM. For the same compound, the TGI (HL-60(TB) leukemia) was 5.21 µM, the GI50 (HOP-62 NSCLC) was 4.39 µM and the TGI (HOP-62 NSCLC) was > 100 µM. For the same compound, the GI50 (HOP-92 NSCLC) was 9.83 µM, the TGI (HOP-92 NSCLC) was > 100 µM and the GI50 (HS 578T breast) was 2.4 µM. It also gave a TGI (HS 578T breast) of 8.62 µM, a GI50 (HT29 colon) of 2.81 µM and a TGI (HT29 colon) of 10.1 µM. For the same compound, the GI50 (IGROV1 ovarian) was 4.26 µM, the TGI (IGROV1 ovarian) was > 100 µM and the GI50 (K-562 leukemia) was 2.18 µM. For the same compound, the TGI (K-562 leukemia) was > 100 µM, the GI50 (KM12 colon) was 3.08 µM and the TGI (KM12 colon) was 19.3 µM. The GI50 (LOX IMVI melanoma) was 2.45 µM, the TGI (LOX IMVI melanoma) was 36.4 µM and the GI50 (M14 melanoma) was 3.76 µM. For the same compound, the TGI (M14 melanoma) was > 100 µM, the GI50 (MALME-3M melanoma) was 5.66 µM and the TGI (MALME-3M melanoma) was > 100 µM. For the same compound, the GI50 (MCF7 breast) was 1.82 µM, the TGI (MCF7 breast) was > 100 µM and the GI50 (MDA-MB-231 breast) was 4.77 µM. The TGI (MDA-MB-231 breast) was 94.7 µM, the GI50 (MDA-MB-435) was 1.61 µM and the TGI (MDA-MB-435) was 4.56 µM. It also gave a GI50 (MDA-MB-468 breast) of 2.67 µM, a TGI (MDA-MB-468 breast) of 19.3 µM and a GI50 (MOLT-4 leukemia) of 3.37 µM. For the same compound, the TGI (MOLT-4 leukemia) was 14.9 µM, the GI50 (NCI-H226 lung) was 3.39 µM and the TGI (NCI-H226 lung) was > 100 µM. It also gave a GI50 (NCI-H23 lung) of 5.55 µM, a TGI (NCI-H23 lung) of 56.7 µM and a GI50 (NCI-H460 lung) of 3.01 µM. For the same compound, the TGI (NCI-H460 lung) was 12.5 µM, the GI50 (NCI-H522 lung) was 1.11 µM and the TGI (NCI-H522 lung) was 11.1 µM. It also gave a GI50 (NCI/ADR-RES ovarian) of 2.16 µM, a TGI (NCI/ADR-RES ovarian) of 5.91 µM and a GI50 (OVCAR-3 ovarian) of 2.24 µM. For the same compound, the TGI (OVCAR-3 ovarian) was 7.69 µM, the GI50 (OVCAR-4 ovarian) was 8.82 µM and the TGI (OVCAR-4 ovarian) was > 100 µM. For the same compound, the GI50 (OVCAR-5 ovarian) was 3.64 µM, the TGI (OVCAR-5 ovarian) was 25.8 µM and the GI50 (OVCAR-8 ovarian) was 3.24 µM. The TGI (OVCAR-8 ovarian) was 16.9 µM, the GI50 (PC-3 prostate) was 3.75 µM and the TGI (PC-3 prostate) was > 100 µM. For the same compound, the GI50 (RPMI-8226 leukemia) was 3.84 µM, the TGI (RPMI-8226 leukemia) was > 100 µM and the GI50 (RXF 393 renal) was 5.03 µM. It also gave a TGI (RXF 393 renal) of 93.5 µM, a GI50 (SF-268 CNS) of 3.72 µM and a TGI (SF-268 CNS) of 84.3 µM. For the same compound, the GI50 (SF-295 CNS) was 3.07 µM, the TGI (SF-295 CNS) was 87 µM and the GI50 (SF-539 CNS) was 2.51 µM. The TGI (SF-539 CNS) was 6.8 µM, the GI50 (SK-MEL-2 melanoma) was 5.98 µM and the TGI (SK-MEL-2 melanoma) was > 100 µM. For the same compound, the GI50 (SK-MEL-28 melanoma) was 8.33 µM, the TGI (SK-MEL-28 melanoma) was > 100 µM and the GI50 (SK-MEL-5 melanoma) was 2.7 µM. For the same compound, the TGI (SK-MEL-5 melanoma) was 10.4 µM, the GI50 (SK-OV-3 ovarian) was 5.45 µM and the TGI (SK-OV-3 ovarian) was > 100 µM. For the same compound, the GI50 (SN12C renal) was 3.74 µM, the TGI (SN12C renal) was 30.9 µM and the GI50 (SNB-19 CNS) was 9.17 µM. For the same compound, the TGI (SNB-19 CNS) was > 100 µM, the GI50 (SNB-75 CNS) was 2.63 µM and the TGI (SNB-75 CNS) was 9.12 µM. It also gave a GI50 (SR leukemia) of 2.56 µM, a TGI (SR leukemia) of 17.7 µM and a GI50 (SW-620 colon) of 3.71 µM. The TGI (SW-620 colon) was > 100 µM, the GI50 (T-47D breast) was 5.6 µM and the TGI (T-47D breast) was > 100 µM. The GI50 (TK-10 renal) was 9.97 µM, the TGI (TK-10 renal) was > 100 µM and the GI50 (U251 CNS) was 4.92 µM. The TGI (U251 CNS) was 72.2 µM, the GI50 (UACC-257 melanoma) was 25.5 µM and the TGI (UACC-257 melanoma) was > 100 µM. The GI50 (UACC-62 melanoma) was 3.35 µM, the TGI (UACC-62 melanoma) was > 100 µM and the GI50 (UO-31 renal) was 5.4 µM. The TGI (UO-31 renal) was > 100 µM.
